Experimental findings from ChEMBL document CHEMBL3272025, “Conformation-activity studies of oxytocin. Effects of structural modifications at corner positions of the beta-turns on the uterotonic activity” (J Med Chem, 1977) are described below.

Series [1] deals with Gallus gallus. Description: Inhibition of vasodepressor activity in conscious chicken. Format: functional, organism-based. Particulars: read-out: pA2 (converted).
The subject of series [2] is Rattus norvegicus. Description: Antidiuretic activity in anesthetized rat. Format: functional, Urine.
Series [3] in a line: Retardation factor of the compound using BuOH-C6H6-HOAc-1.5% aqueous pyridine at ratio of 5:5:4:6 as solvent system by partition chromatography. Format: physicochemical. Particulars: buffer.
Series [4] in a line: Retardation factor of the compound using BuOH-C6H6-HOAc-1.5% aqueous pyridine at ratio of 10:15:12:18 as solvent system by partition chromatography. Format: physicochemical. The conditions noted are these: buffer.
In series [5] the target is T1, Oxytocin receptor (Rattus norvegicus) (UniProt P70536).
T1 sequence (whole entry): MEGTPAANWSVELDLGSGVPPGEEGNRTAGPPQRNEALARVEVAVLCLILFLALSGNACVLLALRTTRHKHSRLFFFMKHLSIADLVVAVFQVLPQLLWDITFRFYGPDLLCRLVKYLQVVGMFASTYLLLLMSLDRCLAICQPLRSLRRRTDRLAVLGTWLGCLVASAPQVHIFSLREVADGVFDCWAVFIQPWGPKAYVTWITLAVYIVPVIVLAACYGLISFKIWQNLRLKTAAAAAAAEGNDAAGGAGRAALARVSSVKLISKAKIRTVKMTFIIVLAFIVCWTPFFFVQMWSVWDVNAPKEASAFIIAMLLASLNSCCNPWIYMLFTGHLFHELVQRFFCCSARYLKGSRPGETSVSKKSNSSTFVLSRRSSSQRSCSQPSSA
Description: Agonist activity at oxytocin receptor in virgin rat uterine horns assessed as uterotonic activity at relative to synthetic oxytocin.

Series [6] can be described thus: Retardation factor of the compound using BuOH-HOAc-H2O at ratio of 4:1:1 as solvent system by thin layer chromatography. In kind it is physicochemical.
In series [7] the target is T1, Oxytocin receptor (Rattus norvegicus). Description: Agonist activity at oxytocin receptor in virgin rat uterine horns assessed as uterotonic activity at.
Series [8] relates to Gallus gallus. Description: Vasodepressor activity in conscious chicken. Format: functional.
The test system of series [9] is Rattus norvegicus. Briefly: Pressor activity in anesthetized rat. Format: functional.
The nature of series [10]: Retardation factor of the compound using BuOH-pyridine-HOAc-H2O at ratio of 15:10:3:6 as solvent system by thin layer chromatography. In kind it is physicochemical.
A short description of series [11]: Retardation factor of the compound using BuOH-pyridine-H2O at ratio of 20:10:11 as solvent system by thin layer chromatography. Format: physicochemical.

Molecules are shown by their SMILES. Bridge positions count the residues as written; N and C are the ends. Peptide text beside a SMILES is read from it.

`CSCC[C@H](NC(=O)[C@@H]1CCCN1C(=O)[C@@H]1CSSC[C@H](N)C(=O)N[C@@H](Cc2ccc(O)cc2)C(=O)N[C@@H](Cc2ccccc2)C(=O)N[C@@H](Cc2ccccc2)C(=O)N[C@@H](CC(N)=O)C(=O)N1)C(=O)NCC(N)=O` (H-CYFFNCPMG-NH2; disulfide 1-6): in series [1], the Kb is 513 nM. In addition, the Activity in series [2] is 0.43 U/mg; in [5] it was 54%. The Rf is 0.49 in series [3], 0.19 in [4] and 0.38 in [6].

As to `CSCC[C@H](NC(=O)[C@@H]1CCCN1C(=O)[C@@H]1CSSC[C@H](N)C(=O)N[C@@H](Cc2ccc(O)cc2)C(=O)N[C@@H](Cc2ccccc2)C(=O)N[C@@H](CC(C)C)C(=O)N[C@@H](CC(N)=O)C(=O)N1)C(=O)NCC(N)=O` (H-CYFLNCPMG-NH2; disulfide 1-6), the Activity in series [7] is 0.62 U/mg; in [8], 1.05 U/mg; in [2], 0.33 U/mg; in series [9] it was 0.92 U/mg; in series [5], 66%. In addition, the Rf in series [4] is listed as 0.17; in [6] it was 0.38; in series [10], 0.64.

As to `CC(C)C[C@H](NC(=O)[C@@H]1CCCN1C(=O)[C@@H]1CSSC[C@H](N)C(=O)N[C@@H](Cc2ccc(O)cc2)C(=O)N[C@@H](Cc2ccccc2)C(=O)N[C@@H](CCC(N)=O)C(=O)N[C@@H](CC(N)=O)C(=O)N1)C(=O)NCC(N)=O` (H-CYFQNCPLG-NH2; disulfide 1-6), the Activity in series [7] is 39 U/mg; in series [5] it was 90%.

In the case of `CC[C@H](C)[C@@H]1NC(=O)[C@H](Cc2ccc(O)cc2)NC(=O)[C@@H](N)CSSC[C@@H](C(=O)N2CCC[C@H]2C(=O)N[C@@H](CC(C)C)C(=O)NCC(N)=O)NC(=O)[C@H](CC(N)=O)NC(=O)[C@H](Cc2ccccc2)NC1=O` (H-CYIFNCPLG-NH2; disulfide 1-6), the Activity in series [7] came to 0.75 U/mg; in series [5], 75%. Also, the Rf came out at 0.26 in [4], 0.38 in series [6] and 0.61 in [11].

For `CC[C@H](C)[C@@H]1NC(=O)[C@H](Cc2ccc(O)cc2)NC(=O)[C@@H](N)CSSC[C@@H](C(=O)N2CCC[C@H]2C(=O)N[C@@H](CC(C)C)C(=O)NCC(N)=O)NC(=O)[C@H](CC(N)=O)NC(=O)[C@H](CC(C)C)NC1=O` (H-CYILNCPLG-NH2; disulfide 1-6), the Activity in [7] is 13 U/mg; in [5], 81%.
